Source: patent publication US4129737A, “Process for the preparation of an 8-alkyl-5-oxo-5,8-dihydro-pyrido(2,3-d)pyrimidine-6-carboxylic acid” (priority 1972, dated 1978)
Values after ≈ are worked out from the molar mass of the structure shown.

Tests used:
Assay in all cases: Average MIC, solid medium (nutrient agar) dilution method
Streptococcus A561 = settings: A561, 18 h, read-out: minimum inhibitory concentration, average
Pr. mirabilis Nig = settings: Proteus mirabilis, 18 h, read-out: minimum inhibitory concentration, average
Esch. coli. 95 I.S.M. = settings: Escherichia coli, 18 h, read-out: minimum inhibitory concentration, average
Esch. coli. Cho = settings: Escherichia coli, 18 h, read-out: minimum inhibitory concentration, average
Esch. coli. 54-127 OMS = settings: Escherichia coli, 18 h, read-out: minimum inhibitory concentration, average
Esch 111 B4 = type: cell-based; settings: 18 h, average of five determinations, read-out: minimum inhibitory concentration, average
Streptococcus DM19 = settings: DM19, 18 h, read-out: minimum inhibitory concentration, average
B. subtilis 6633 = settings: Bacillus subtilis, 6633, 18 h, read-out: minimum inhibitory concentration, average
Pr. vulgaris 12-53 = settings: Proteus vulgaris, 1253, 18 h, read-out: minimum inhibitory concentration, average
Bord. bronch. 4617 = settings: 18 h, read-out: minimum inhibitory concentration, average
Staphylococcus 9144 = settings: Staphylococcus, 9144, 18 h, read-out: minimum inhibitory concentration, average
Ps. aeruginosa 72-345 = settings: Pseudomonas aeruginosa, 72345, 18 h, read-out: minimum inhibitory concentration, average
Sh. sonnei I.P.S. = type: cell-based; settings: Shigella sonnei, 18 h, average of five determinations, read-out: minimum inhibitory concentration, average
Esch. coli. LRB 67 = settings: Escherichia coli, 18 h, read-out: minimum inhibitory concentration, average
Staphylococcus SIM = settings: 18 h, read-out: minimum inhibitory concentration, average
Ps. aeruginosa A22 = settings: Pseudomonas aeruginosa, A22, 18 h, read-out: minimum inhibitory concentration, average
Klebs. pneumoniae 10.031 = settings: Klebsiella pneumoniae, 10.031, 18 h, read-out: minimum inhibitory concentration, average
Esch. coli. LRB 45 = settings: Escherichia coli, 18 h, read-out: minimum inhibitory concentration, average
Staphylococcus 209P = settings: 18 h, read-out: minimum inhibitory concentration, average
Salm. typhi 0901 = type: cell-based; settings: Salmonella enterica, 18 h, read-out: minimum inhibitory concentration, average
S. oranienburg 10-66 = settings: Salmonella enterica, 1066, 18 h, read-out: minimum inhibitory concentration, average
Pr. morganii A 236 = settings: Morganella morganii, A236, 18 h, read-out: minimum inhibitory concentration, average
Arizona 6211 = settings: 18 h, read-out: minimum inhibitory concentration, average
Providencia 0223 = settings: Providencia, 0223, 18 h, read-out: minimum inhibitory concentration, average
S. enteritidis DANYZ = settings: Salmonella enterica, 18 h, read-out: minimum inhibitory concentration, average

`CCn1cc(C(=O)O)c(=O)c2cnc(N3CCCC3)nc21` [Example III, 2-Pyrrolidino-5-oxo-8-ethyl-5,8-dihydro-pyrido(2,3-d)-pyrimidine-6-carboxylic acid] was tested, and the MIC (Streptococcus A561) was 2.82 µg/mL (≈ 9.78 µM), the MIC (Pr. mirabilis Nig) was 30 µg/mL (≈ 104 µM) and the MIC (Esch. coli. 95 I.S.M.) was 32.5 µg/mL (≈ 113 µM). The MIC (Esch. coli. Cho) was 32.5 µg/mL (≈ 113 µM), the MIC (Esch. coli. 54-127 OMS) was 15.6 µg/mL (≈ 54.2 µM) and the MIC (Esch 111 B4) was 15.6 µg/mL (≈ 54.2 µM). The MIC (Streptococcus DM19) was 100 µg/mL (≈ 347 µM), the MIC (B. subtilis 6633) was 1 µg/mL (≈ 3.47 µM) and the MIC (Pr. vulgaris 12-53) was 5.6 µg/mL (≈ 19.4 µM). It also gave an MIC (Bord. bronch. 4617) of 80 µg/mL (≈ 277 µM), an MIC (Staphylococcus 9144) of 4.04 µg/mL (≈ 14 µM) and an MIC (Ps. aeruginosa 72-345) of 75 µg/mL (≈ 260 µM). The MIC (Sh. sonnei I.P.S.) was 10.6 µg/mL (≈ 36.8 µM), the MIC (Esch. coli. LRB 67) was 12.5 µg/mL (≈ 43.4 µM) and the MIC (Staphylococcus SIM) was 15 µg/mL (≈ 52 µM). For the same molecule, the MIC (Ps. aeruginosa A22) was 100 µg/mL (≈ 347 µM), the MIC (Klebs. pneumoniae 10.031) was 1.2 µg/mL (≈ 4.16 µM) and the MIC (Esch. coli. LRB 45) was 15.6 µg/mL (≈ 54.2 µM). The MIC (Staphylococcus 209P) was 3.42 µg/mL (≈ 11.9 µM), the MIC (Salm. typhi 0901) was 23.7 µg/mL (≈ 82.3 µM) and the MIC (S. oranienburg 10-66) was 100 µg/mL (≈ 347 µM). For the same molecule, the MIC (Pr. morganii A 236) was 0.56 µg/mL (≈ 1.94 µM), the MIC (Arizona 6211) was 27.5 µg/mL (≈ 95.4 µM) and the MIC (Providencia 0223) was 100 µg/mL (≈ 347 µM). It also gave an MIC (S. enteritidis DANYZ) of 21.9 µg/mL (≈ 76 µM).
Work on `CCn1cc(C(=O)O)c(=O)c2ccc(C)nc21` [Nalidixic acid, nalidixic acid, reference compound] yielded an MIC (Streptococcus A561) of 18.7 µg/mL (≈ 80.7 µM), an MIC (Pr. mirabilis Nig) of 3.42 µg/mL (≈ 14.7 µM) and an MIC (Esch. coli. 95 I.S.M.) of 21.9 µg/mL (≈ 94.2 µM). It also gave an MIC (Esch. coli. Cho) of 4.04 µg/mL (≈ 17.4 µM), an MIC (Esch. coli. 54-127 OMS) of 2.15 µg/mL (≈ 9.26 µM) and an MIC (Esch 111 B4) of 2.34 µg/mL (≈ 10.1 µM). It also gave an MIC (Streptococcus DM19) of 100 µg/mL (≈ 431 µM), an MIC (B. subtilis 6633) of 72 µg/mL (≈ 310 µM) and an MIC (Pr. vulgaris 12-53) of 0.88 µg/mL (≈ 3.79 µM). It also gave an MIC (Bord. bronch. 4617) of 25 µg/mL (≈ 108 µM), an MIC (Staphylococcus 9144) of 25 µg/mL (≈ 108 µM) and an MIC (Ps. aeruginosa 72-345) of 60 µg/mL (≈ 258 µM). The MIC (Sh. sonnei I.P.S.) was 1.58 µg/mL (≈ 6.8 µM), the MIC (Esch. coli. LRB 67) was 2.7 µg/mL (≈ 11.6 µM) and the MIC (Staphylococcus SIM) was 56.2 µg/mL (≈ 242 µM). For the same molecule, the MIC (Ps. aeruginosa A22) was 60 µg/mL (≈ 258 µM), the MIC (Klebs. pneumoniae 10.031) was 1.4 µg/mL (≈ 6.03 µM) and the MIC (Esch. coli. LRB 45) was 3.1 µg/mL (≈ 13.3 µM). The MIC (Staphylococcus 209P) was 16.2 µg/mL (≈ 69.9 µM), the MIC (Salm. typhi 0901) was 2.7 µg/mL (≈ 11.6 µM) and the MIC (S. oranienburg 10-66) was 100 µg/mL (≈ 431 µM). It also gave an MIC (Pr. morganii A 236) of 0.36 µg/mL (≈ 1.55 µM), an MIC (Arizona 6211) of 3.12 µg/mL (≈ 13.4 µM) and an MIC (Providencia 0223) of 100 µg/mL (≈ 431 µM). The MIC (S. enteritidis DANYZ) was 2.75 µg/mL (≈ 11.8 µM).
